US20260258039A1, “AROMATIC COMPOUND, METHOD FOR PREPARING SAME, AND USE THEREOF IN PREPARATION OF ESTROGEN RECEPTOR DEGRADER” (Hinova Pharmaceuticals Inc., priority 2022, published 2026)

Test system: MCF-7 breast cancer cells
Experiment: Inhibition of proliferation of MCF-7 breast cancer cells (agarose culture, CellTiter-Glo 3D)
Type: cell-based
Settings: Homo sapiens, MCF7, 360 h, MCF-7 cells, 15 days of cultivation; read-out: IC50
Experimental: After 1.6% agarose and 0.7% agarose were sterilized at high temperature, they were cooled to around 50° C., and placed in a 42° C. water bath for later use. MCF-7 breast cancer cells were subcultured in complete cell culture medium, and cells in good growth condition were digested and counted for future use. 50 µL of 1.6% agarose mixed with 2× culture medium at a ratio of 1:1 was spread into the bottom of 96-well plate, and allowed to cool and solidify. 0.7% agarose was mixed with diluted cell suspension in a ratio of 1:1, and then 50 µL of the mixture of gel and cells was added to each well, with 2000 cells for each well; the mixture was allowed to cool and solidify at room temperature. 50 μL of culture medium was added to the plate containing cells, and the plate was placed in a 37° C., 5% CO2 incubator and cultured for 24 h. The drug was prepared into 10 mM stock solution with dimethyl sulfoxide (DMSO). The stock solution was diluted in a ratio of 1:3, to obtain 9 concentration gradients. Then, each concentration of compound solution was further diluted with culture medium in 1:250 (to ensure a DMSO concentration of 0.1% in the culture system). Two replicate wells was set for each concentration. 50 μL of the diluted compound solution was added to the cell culture wells (with final concentrations of 10 μM, 3.3 μM, 1.1 μM, 0.37 μM . . . ). The plate was gently shaken for mixing. Additionally, 3 negative control wells only containing cells and 3 blank control wells only containing culture medium were set up (each of the 6 wells was added with 50 μL of DMSO diluted with culture medium in a ration of 1:250). After 15 days of cultivation, the cell plates and CellTiter-Glo 3D Cell Viability were taken out and equilibrated to room temperature in advance. 80 μL of culture medium were aspirated and discarded from the cell plate, and 120 µL of CellTiter-Glo 3D Cell Viability solution was added to each well. The plates were centrifuged at 1200 rpm/min for 5 min, and then placed in the dark and kept for 25 min. The […] were measured using a multi-function microplate reader. The data were analyzed using the Dose-response-inhibition equation in GraphPad Prism8 software, and the IC50 values were obtained, as shown in Table 3.

Compound	IC50
O=C1CCC(NC(=O)c2ccc(N3CC4(CCN(CC5CCN(c6ccc([C@@H]7c8ccc(O)cc8OC[C@@H]7c7ccccc7F)cc6)CC5)CC4)C3)cc2F)C(=O)N1 (relative stereo) [Example 103, N-(2,6-dioxopiperidin-3-yl)-2-fluoro-4-(7-((1-(4-(cis-3-(2-fluorophenyl)-7-hydroxychroman-4-yl)phenyl)piperidin-4-yl)methyl)-2,7-diazaspiro[3.5]nonane-2-yl)benzamide]	> 50 nM
O=C1CC[C@H](N2Cc3cc(N4CC5(CCN(CC6CCN(c7ccc([C@@H]8c9ccc(O)cc9OC[C@@H]8c8c(F)cccc8F)cc7)CC6)CC5)C4)ccc3C2=O)C(=O)N1 [Example 78, (S)-3-(6-(7-((1-(4-((3S,4R)-3-(2,6-difluorophenyl)-7-hydroxychroman-4-yl)phenyl)piperidin-4-yl)methyl)-2,7-diazaspiro[3.5]nonane-2-yl)-1-oxoisoinodolin-2-yl)piperidin-2,6-dione]	< 10 nM
[2H]C1(N2Cc3cc(N4CC5(CCN(CC6CCN(c7ccc([C@@H]8c9ccc(O)cc9OC[C@@H]8c8c(F)cccc8F)cc7F)CC6)CC5)C4)ccc3C2=O)CCC(=O)NC1=O (stereo partly drawn) [Example 93, 3-deutero-3-(5-(7-((1-(4-((3S,4R)-3-(2,6-difluorophenyl)-7-hydroxychroman-4-yl)-2-fluorophenyl)piperidin-4-yl)methyl)-2,7-diazaspiro[3.5]nonane-2-yl)-1-oxoisoinodolin-2-yl)piperidin-2,6-dione]	11 to 50 nM
O=C1CCC(N2Cc3cc(N4CC5(CCN(CC6CCN(c7ccc([C@@H]8c9ccc(B(O)O)cc9OC[C@@H]8c8ccccc8F)cc7)CC6)CC5)C4)ccc3C2=O)C(=O)N1 (stereo partly drawn) [Example 101, (cis-4-(4-(4-((2-(2-(2,6-dioxopiperidin-3-yl)-1-oxoisoinodolin-5-yl)-2,7-diazaspiro[3.5]nonan-7-yl)methyl)piperidin-1-yl)phenyl)-3-(2-fluorophenyl)pyran-7-yl)boric acid]	11 to 50 nM
O=C1CCC(N2Cc3cc(N4CC5(CCN(CC6CCN(c7ccc([C@@H]8c9ccc(C(=O)O)cc9OC[C@@H]8c8ccccc8F)cc7)CC6)CC5)C4)ccc3C2=O)C(=O)N1 (stereo partly drawn) [Example 102, cis-4-(4-(4-((2-(2-(2,6-dioxopiperidin-3-yl)-1-oxoisoinodolin-5-yl)-2,7-diazaspiro[3.5]nonan-7-yl)methyl)piperidin-1-yl)phenyl)-3-(2-fluorophenyl)chroman-7-formic acid]	> 50 nM
